Measurements: patent US20130116231A1, “TYROSINE KINASE INHIBITORS” (Merck Sharp & Dohme Corp., priority 2010, published 2013)

What follows are molecules tested against T1, human c-Met (Homo sapiens, UniProt P08581) (assay: in vitro kinase assay (homogeneous time-resolved tyrosine kinase assay, METKA)). Details: recombinant GST-tagged c-Met cytosolic domain, HTRF, 50 μM MgATP; read-out: Biological Activity (METKA IC50) Activity Code.
T1 construct: Recombinant GST-tagged cytosolic domains of human c-Met; 6xHis; made in house; host or cells: Sf9 or Sf21 insect cells (baculovirus)
Assay type: biochemical
Outline: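 HTRF assay with GST-tagged cytosolic c-Met domain (0.2 nM), 0.5 μM biotinylated peptide, 50 μM MgATP, pH 7.4, 5% DMSO, 80 min at room temperature; Eu-anti-pTyr/SA-APC detection, IC50 by 4-parameter fit. Other kinases identical except enzyme level: mouse c-Met 0.2, Ron 2.5, KDR 8, IGFR 0.24, EGFR 0.24, FGFR 0.14, Mer 16, TrkA 8, Tie2 8 nM.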

T1 sequence (P08581 956-1390 limits assumed): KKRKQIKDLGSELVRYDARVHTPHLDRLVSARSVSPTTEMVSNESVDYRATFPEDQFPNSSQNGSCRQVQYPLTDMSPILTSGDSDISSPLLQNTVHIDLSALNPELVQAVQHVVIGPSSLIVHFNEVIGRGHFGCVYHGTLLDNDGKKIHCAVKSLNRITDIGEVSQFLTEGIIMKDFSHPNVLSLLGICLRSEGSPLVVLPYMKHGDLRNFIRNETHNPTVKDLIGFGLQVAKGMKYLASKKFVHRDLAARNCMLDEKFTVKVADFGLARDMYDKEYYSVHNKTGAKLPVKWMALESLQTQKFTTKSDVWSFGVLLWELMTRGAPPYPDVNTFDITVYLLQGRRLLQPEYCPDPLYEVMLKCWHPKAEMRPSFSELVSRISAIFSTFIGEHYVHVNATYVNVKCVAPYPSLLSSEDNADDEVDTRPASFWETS

IC50, < 100 nM:
[2H]C([2H])([2H])C([2H])([2H])Oc1cnc2ccc(OCc3nn(-c4cnn(C)c4)ccc3=O)cc2c1 [Example 64, 3-[({3-[(^2H5)ethyloxy]quinolin-6-yl}oxy)methyl]-1-(1-methyl-1H-pyrazol-4-yl)pyridazin-4(1H)-one]
Cn1cc(-n2ccc(=O)c(COc3ccc4ncc(OCC(F)F)cc4c3)n2)cn1 [Example 65, 3-({[3-(2,2-difluoroethoxy)quinolin-6-yl]oxy}methyl)-1-(1-methyl-1H-pyrazol-4-yl)pyridazin-4(1H)-one]
Cn1cc(-n2ccc(=O)c(COc3ccc4ncc(OC(F)F)cc4c3)n2)cn1 [Example 66, 3-({[3-(difluoromethoxy)quinolin-6-yl]oxy}methyl)-1-(1-methyl-1H-pyrazol-4-yl)pyridazin-4(1H)-one]
CCn1cc(-n2ccc(=O)c(COc3ccc4ncc(Oc5ccccn5)cc4c3)n2)cn1 [Example 67, 1-(1-ethyl-1H-pyrazol-4-yl)-3-({[3-(pyridin-2-yloxy)quinolin-6-yl]oxy}methyl)pyridazin-4(1H)-one]
CCn1cc(-n2ccc(=O)c(COc3ccc4ncc(OCC(F)F)cc4c3)n2)cn1 [Example 68, 3-({[3-(2,2-difluoroethoxy)quinolin-6-yl]oxy}methyl)-1-(1-ethyl-1H-pyrazol-4-yl)pyridazin-4(1H)-one]
CCn1cc(-n2ccc(=O)c(COc3ccc4ncc(OC5CCOC5)cc4c3)n2)cn1 (stereo not drawn) [Example 69, 1-(1-ethyl-1H-pyrazol-4-yl)-3-({[3-(tetrahydrofuran-3-yloxy)quinolin-6-yl]oxy}methyl)pyridazin-4(1H)-one]
CCn1cc(-n2ccc(=O)c(COc3ccc4ncc(OCc5noc(C)n5)cc4c3)n2)cn1 [Example 70, 1-(1-ethyl-1H-pyrazol-4-yl)-3-[({3-[(5-methyl-1,2,4-oxadiazol-3-yl)methoxy]quinolin-6-yl}oxy)methyl]pyridazin-4(1H)-one]
Cc1cnc2ccc(OCc3nn(-c4cnn(C)c4)ccc3=O)cc2c1 [Example 71, 1-(1-Methyl-1H-pyrazol-4-yl)-3-{[(3-methylquinolin-6-yl)oxy]methyl}pyridazin-4(1H)-one]
CCc1cnc2ccc(OCc3nn(-c4cnn(C)c4)ccc3=O)cc2c1 [Example 72, 3-{[(3-ethylquinolin-6-yl)oxy]methyl}-1-(1-methyl-1H-pyrazol-4-yl)pyridazin-4(1H)-one]
COCc1cnc2ccc(OCc3nn(-c4cnn(C)c4)ccc3=O)cc2c1 [Example 73, 3-({[3-(methoxymethyl)quinolin-6-yl]oxy}methyl)-1-(1-methyl-1H-pyrazol-4-yl)pyridazin-4(1H)-one]
Cn1cc(-n2ccc(=O)c(COc3ccc4ncc(-c5cccnc5)cc4c3)n2)cn1 [Example 74, 1-(1-Methyl-1H-pyrazol-4-yl)-3-{[(3-pyridin-3-ylquinolin-6-yl)oxy]methyl}pyridazin-4(1H)-one]
Cn1cc(-c2cnc3ccc(OCc4nn(-c5cnn(C)c5)ccc4=O)cc3c2)cn1 [Example 75]
CCn1cc(-n2ccc(=O)c(COc3ccc4ncc(-c5ccc(S(C)(=O)=O)cc5)cc4c3)n2)cn1 [Example 76, 1-(1-Ethyl-1H-pyrazol-4-yl)-3-[({3-[4-(methylsulfonyl)phenyl]quinolin-6-yl}oxy)methyl]pyridazin-4(1H)-one]
CCn1cc(-n2ccc(=O)c(COc3ccc4ncc(-c5cnn(CCOC)c5)cc4c3)n2)cn1 [Example 77, 1-(1-ethyl-1H-pyrazol-4-yl)-3-[({3-[1-(2-methoxyethyl)-1H-pyrazol-4-yl]quinolin-6-yl}oxy)methyl]pyridazin-4(1H)-one]
CCn1cc(-n2ccc(=O)c(COc3ccc4ncc(-c5ccc(F)cc5)cc4c3)n2)cn1 [Example 78, 1-(1-ethyl-1H-pyrazol-4-yl)-3-({[3-(4-fluorophenyl)quinolin-6-yl]oxy}methyl)pyridazin-4(1H)-one]
